# Data as given in ChEMBL document CHEMBL4477252, “Optimization of microtubule affinity regulating kinase (MARK) inhibitors with improved physical properties” (Bioorg Med Chem Lett, 2016).
# What was measured:
# [1] = Oral bioavailability in Sprague-Dawley rat at 5 mL/kg administered through gastric gavage measured after 24 hrs by LC-MS/MS analysis; format: ADME, organism-based; conditions: in vivo
# [2] = molecular target: MDR1 (ABCB1, P-glycoprotein) (Homo sapiens, UniProt P08183); test: Substrate activity at human MDR1 expressed in LLC-PK1 cells assessed as efflux ratio of permeability across basolateral to apical over apical to basolateral side at 5 uM; format: ADME, cell-based
# Sequence of MDR1 (ABCB1, P-glycoprotein) (Homo sapiens, UniProt P08183) (P08183 whole entry): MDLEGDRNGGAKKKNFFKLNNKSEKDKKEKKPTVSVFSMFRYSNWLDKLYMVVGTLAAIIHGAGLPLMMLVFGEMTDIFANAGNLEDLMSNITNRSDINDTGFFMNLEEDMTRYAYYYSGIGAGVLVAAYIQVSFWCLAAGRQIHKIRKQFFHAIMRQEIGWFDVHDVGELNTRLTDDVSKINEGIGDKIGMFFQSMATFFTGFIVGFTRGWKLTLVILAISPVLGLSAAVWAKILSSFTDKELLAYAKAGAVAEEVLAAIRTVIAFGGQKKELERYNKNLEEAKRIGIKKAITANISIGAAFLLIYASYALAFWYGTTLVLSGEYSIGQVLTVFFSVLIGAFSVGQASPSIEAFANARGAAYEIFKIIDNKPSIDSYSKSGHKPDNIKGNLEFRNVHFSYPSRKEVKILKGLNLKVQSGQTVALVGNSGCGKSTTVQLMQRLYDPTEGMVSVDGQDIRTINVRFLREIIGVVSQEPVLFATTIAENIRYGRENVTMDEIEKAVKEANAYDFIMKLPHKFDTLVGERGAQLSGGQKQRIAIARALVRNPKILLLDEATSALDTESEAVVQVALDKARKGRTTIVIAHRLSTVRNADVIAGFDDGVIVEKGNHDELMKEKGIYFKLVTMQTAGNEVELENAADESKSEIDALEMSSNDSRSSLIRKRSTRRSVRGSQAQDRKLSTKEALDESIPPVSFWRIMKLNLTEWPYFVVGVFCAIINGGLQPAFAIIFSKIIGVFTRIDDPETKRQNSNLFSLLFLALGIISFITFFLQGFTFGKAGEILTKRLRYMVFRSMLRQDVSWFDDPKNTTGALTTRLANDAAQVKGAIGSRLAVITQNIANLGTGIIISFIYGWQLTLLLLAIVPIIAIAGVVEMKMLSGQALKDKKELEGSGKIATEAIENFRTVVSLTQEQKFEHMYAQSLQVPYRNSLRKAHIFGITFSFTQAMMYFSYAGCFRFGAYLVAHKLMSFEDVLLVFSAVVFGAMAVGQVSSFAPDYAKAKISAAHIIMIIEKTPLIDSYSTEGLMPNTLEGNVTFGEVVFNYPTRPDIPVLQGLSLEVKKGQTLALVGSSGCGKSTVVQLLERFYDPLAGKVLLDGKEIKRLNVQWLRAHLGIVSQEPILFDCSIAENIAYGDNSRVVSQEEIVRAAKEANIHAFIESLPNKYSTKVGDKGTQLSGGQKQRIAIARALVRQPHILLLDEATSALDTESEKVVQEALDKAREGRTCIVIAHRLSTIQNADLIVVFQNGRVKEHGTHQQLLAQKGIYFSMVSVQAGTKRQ
# [3] = molecular target: MDR1 (ABCB1, P-glycoprotein) (Rattus norvegicus, UniProt P43245); test: Substrate activity at rat MDR1 expressed in LLC-PK1 cells assessed as efflux ratio of permeability across basolateral to apical over apical to basolateral side at 5 uM; format: ADME, cell-based
# [4] = molecular target: T1, Calcium/calmodulin-dependent protein kinase type IV (Homo sapiens, UniProt Q16566); test: Inhibition of full-length recombinant human GST-tagged CAMK4 expressed in Escherichia coli by Z'-LYTE assay
# T1 sequence (Q16566 whole entry): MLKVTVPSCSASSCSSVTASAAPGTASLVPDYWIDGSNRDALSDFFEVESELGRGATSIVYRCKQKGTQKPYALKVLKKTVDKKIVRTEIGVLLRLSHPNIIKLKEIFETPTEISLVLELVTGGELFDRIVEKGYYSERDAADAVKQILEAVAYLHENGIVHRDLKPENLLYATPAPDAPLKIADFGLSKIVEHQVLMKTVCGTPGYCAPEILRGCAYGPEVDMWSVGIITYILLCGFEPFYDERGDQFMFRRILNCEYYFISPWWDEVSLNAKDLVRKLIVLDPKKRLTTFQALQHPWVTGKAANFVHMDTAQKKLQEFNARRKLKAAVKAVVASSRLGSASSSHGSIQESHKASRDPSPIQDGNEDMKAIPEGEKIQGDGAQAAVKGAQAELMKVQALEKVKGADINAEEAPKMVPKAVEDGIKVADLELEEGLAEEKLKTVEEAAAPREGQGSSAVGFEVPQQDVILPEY
# [5] = molecular target: Casein kinase I isoform alpha (Homo sapiens, UniProt P48729); test: Inhibition of recombinant human GST-tagged cytoplasmic CSNK1A1 expressed in baculovirus expression system by Z'-LYTE assay
# Sequence of Casein kinase I isoform alpha (P48729 whole entry, canonical isoform): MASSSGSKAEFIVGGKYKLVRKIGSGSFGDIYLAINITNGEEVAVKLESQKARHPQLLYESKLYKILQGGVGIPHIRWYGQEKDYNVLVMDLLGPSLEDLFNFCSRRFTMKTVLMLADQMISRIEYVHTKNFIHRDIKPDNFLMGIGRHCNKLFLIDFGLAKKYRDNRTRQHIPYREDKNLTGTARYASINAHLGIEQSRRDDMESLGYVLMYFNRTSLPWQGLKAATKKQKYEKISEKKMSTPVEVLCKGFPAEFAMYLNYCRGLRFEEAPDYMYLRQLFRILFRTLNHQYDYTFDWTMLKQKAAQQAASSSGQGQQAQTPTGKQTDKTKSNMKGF
# [6] = molecular target: Epidermal growth factor receptor (Homo sapiens, UniProt P00533); test: Inhibition of recombinant human His-tagged EGFR expressed in mammalian expression system by Z'-LYTE assay
# Sequence of Epidermal growth factor receptor (P00533 whole entry): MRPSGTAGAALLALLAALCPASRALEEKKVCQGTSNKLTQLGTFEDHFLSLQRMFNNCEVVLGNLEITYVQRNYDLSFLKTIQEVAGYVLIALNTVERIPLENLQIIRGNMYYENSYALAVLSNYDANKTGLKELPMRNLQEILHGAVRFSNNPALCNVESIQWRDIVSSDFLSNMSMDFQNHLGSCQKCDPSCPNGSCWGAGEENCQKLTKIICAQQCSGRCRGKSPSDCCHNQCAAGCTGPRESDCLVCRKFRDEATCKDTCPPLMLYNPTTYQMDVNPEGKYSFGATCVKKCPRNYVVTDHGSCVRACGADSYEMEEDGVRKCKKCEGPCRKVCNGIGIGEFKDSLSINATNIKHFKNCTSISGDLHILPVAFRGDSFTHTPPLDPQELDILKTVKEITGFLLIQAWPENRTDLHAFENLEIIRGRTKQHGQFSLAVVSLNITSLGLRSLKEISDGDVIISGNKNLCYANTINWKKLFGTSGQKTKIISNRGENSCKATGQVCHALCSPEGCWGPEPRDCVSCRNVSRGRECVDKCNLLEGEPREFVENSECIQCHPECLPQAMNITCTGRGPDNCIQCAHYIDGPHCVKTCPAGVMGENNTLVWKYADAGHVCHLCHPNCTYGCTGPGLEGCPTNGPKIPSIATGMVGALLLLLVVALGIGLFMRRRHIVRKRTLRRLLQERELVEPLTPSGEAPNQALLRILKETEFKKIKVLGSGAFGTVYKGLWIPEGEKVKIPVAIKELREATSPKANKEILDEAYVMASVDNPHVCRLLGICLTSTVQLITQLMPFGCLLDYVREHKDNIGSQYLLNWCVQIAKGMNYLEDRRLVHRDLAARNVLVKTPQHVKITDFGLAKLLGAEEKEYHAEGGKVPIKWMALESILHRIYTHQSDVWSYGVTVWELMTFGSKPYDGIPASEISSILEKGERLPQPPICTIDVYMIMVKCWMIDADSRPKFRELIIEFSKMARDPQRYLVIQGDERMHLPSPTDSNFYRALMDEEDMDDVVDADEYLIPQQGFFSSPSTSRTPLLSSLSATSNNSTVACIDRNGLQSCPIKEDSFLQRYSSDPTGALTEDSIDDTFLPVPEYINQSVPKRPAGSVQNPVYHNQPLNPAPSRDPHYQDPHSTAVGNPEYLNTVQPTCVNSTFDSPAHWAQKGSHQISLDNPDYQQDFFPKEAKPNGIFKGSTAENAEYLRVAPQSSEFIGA
# [7] = molecular target: Glycogen synthase kinase-3 beta (Homo sapiens, UniProt P49841); test: Inhibition of full-length recombinant human His-tagged GSK3B expressed in baculovirus expression system by Z'-LYTE assay
# Sequence of Glycogen synthase kinase-3 beta (P49841 whole entry): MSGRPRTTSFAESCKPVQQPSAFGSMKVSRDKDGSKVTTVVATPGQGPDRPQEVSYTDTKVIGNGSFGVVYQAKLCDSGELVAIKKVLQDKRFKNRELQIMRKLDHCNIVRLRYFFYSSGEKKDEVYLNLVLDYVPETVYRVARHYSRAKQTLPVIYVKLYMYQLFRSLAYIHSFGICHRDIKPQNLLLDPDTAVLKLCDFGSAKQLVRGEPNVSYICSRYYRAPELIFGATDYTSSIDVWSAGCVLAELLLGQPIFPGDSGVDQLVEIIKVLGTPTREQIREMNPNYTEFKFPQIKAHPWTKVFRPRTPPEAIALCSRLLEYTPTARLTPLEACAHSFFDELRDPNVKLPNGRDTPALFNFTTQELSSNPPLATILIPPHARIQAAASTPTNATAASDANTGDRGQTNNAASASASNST
# [8] = molecular target: T2, Mitogen-activated protein kinase 13 (Homo sapiens, UniProt O15264); test: Inhibition of full-length recombinant human His-tagged MAPK13 expressed in baculovirus expression system by Z'-LYTE assay
# T2 sequence (O15264 whole entry): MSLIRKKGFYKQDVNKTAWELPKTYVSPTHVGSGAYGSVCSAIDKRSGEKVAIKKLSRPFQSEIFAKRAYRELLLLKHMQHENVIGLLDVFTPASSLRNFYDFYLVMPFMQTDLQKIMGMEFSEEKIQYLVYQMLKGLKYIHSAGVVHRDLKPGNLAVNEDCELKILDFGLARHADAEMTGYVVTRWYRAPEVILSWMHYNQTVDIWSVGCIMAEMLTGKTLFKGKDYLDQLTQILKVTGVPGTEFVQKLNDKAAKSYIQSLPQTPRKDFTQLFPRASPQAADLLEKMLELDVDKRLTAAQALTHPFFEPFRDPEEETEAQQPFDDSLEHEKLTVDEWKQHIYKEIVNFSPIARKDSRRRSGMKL
# [9] = Inhibition of full-length recombinant human GST-tagged PKG2 expressed in baculovirus expression system by Z'-LYTE assay
# [10] = molecular target: Protein kinase C theta type (Homo sapiens, UniProt Q04759); test: Inhibition of full-length recombinant human His-tagged PRKCQ expressed in baculovirus expression system by Z'-LYTE assay
# Sequence of Protein kinase C theta type (Q04759 whole entry): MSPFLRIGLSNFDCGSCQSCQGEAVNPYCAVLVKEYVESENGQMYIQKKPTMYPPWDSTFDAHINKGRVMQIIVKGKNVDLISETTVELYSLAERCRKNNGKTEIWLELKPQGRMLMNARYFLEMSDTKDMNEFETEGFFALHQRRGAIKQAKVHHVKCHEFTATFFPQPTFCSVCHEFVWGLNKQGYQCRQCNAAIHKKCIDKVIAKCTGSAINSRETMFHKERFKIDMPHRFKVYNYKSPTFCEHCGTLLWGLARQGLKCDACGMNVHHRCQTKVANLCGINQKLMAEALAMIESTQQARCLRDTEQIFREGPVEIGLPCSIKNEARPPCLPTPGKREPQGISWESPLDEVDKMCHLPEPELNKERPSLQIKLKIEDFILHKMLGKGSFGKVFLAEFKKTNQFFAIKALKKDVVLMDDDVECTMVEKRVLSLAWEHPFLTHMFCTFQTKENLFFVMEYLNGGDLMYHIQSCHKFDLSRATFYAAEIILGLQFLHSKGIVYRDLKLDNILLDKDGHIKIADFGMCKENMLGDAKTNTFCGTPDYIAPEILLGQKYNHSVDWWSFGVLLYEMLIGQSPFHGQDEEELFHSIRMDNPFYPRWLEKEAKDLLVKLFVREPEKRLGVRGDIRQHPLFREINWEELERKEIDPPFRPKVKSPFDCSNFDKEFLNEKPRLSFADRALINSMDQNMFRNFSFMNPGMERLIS
# [11] = Solubility of the compound at pH 2; format: physicochemical; conditions: buffer
# [12] = Solubility of the compound at pH 7; format: physicochemical; conditions: buffer
# [13] = Half life in Sprague-Dawley rat at 1 mL/kg, iv administered through catheter measured after 24 hrs by LC-MS/MS analysis; format: ADME, organism-based; conditions: in vivo
# [14] = Clearance in Beagle dog at 0.5 mL/kg, iv administered through catheter measured after 24 hrs by LC-MS/MS analysis; format: ADME, organism-based, Canis lupus familiaris; conditions: in vivo
# [15] = Volume of distribution in Beagle dog at 0.5 mL/kg, iv administered through catheter or 5 mL/kg, administered through gastric gavage measured after 24 hrs by LC-MS/MS analysis; format: ADME, organism-based, Canis lupus familiaris; conditions: in vivo
# [16] = Half life in Beagle dog at 0.5 mL/kg, iv administered through catheter or 5 mL/kg, administered through gastric gavage measured after 24 hrs by LC-MS/MS analysis; format: ADME, organism-based, Canis lupus familiaris; conditions: in vivo
Structure (SMILES),bioavailability [1],efflux ratio at 5 µM [2],efflux ratio at 5 µM [3],IC50 [4],IC50 [5],IC50 [6],IC50 [7],IC50 [8],IC50 [9],IC50 [10],solubility [11],solubility [12],half-life [13],clearance [14],Vd [15],half-life [16]
Cn1cc(-c2cnc3c(-c4csc(C(=O)NCC(F)(F)F)c4)cnn3c2)cn1,53%,1.4,1.9,> 100000 nM,630 nM,28000 nM,84 nM,2200 nM,480 nM,> 100000 nM,< 3 µM,,,,,
Cc1sc(C(=O)N[C@@H]2[C@H](N)CCCC2(F)F)cc1-c1cnn2cc(Cl)cnc12,,2.9,,29000 nM,18000 nM,> 100000 nM,150 nM,160 nM,990 nM,8700 nM,206 µM,114 µM,42 min,27 mL/min/kg,2.3 L/kg,60 min
O=C(NCC(F)(F)F)c1cc(-c2cnn3cc(-c4ccc(OCCN5CCCCC5)cc4)cnc23)cs1,46%,,,55000 nM,230 nM,1100 nM,220 nM,13000 nM,,6600 nM,,,,,,
Cn1cc(-c2cnc3c(-c4csc(C(=O)N[C@@H]5CCCC[C@@H]5N)c4)cnn3c2)cn1 (racemic),,24,54,> 10000 nM,2100 nM,340 nM,23 nM,39 nM,,270 nM,,68 µM,,,,
